Source: patent US5124325A, “Therapeutic agents of metabolic bone disease” (Kyorin Pharmaceutical Co., Ltd., priority 1989, dated 1992)

Tested on: bone resorption
Test: Inhibition of bone resorption (45Ca release from prelabeled rat embryonic limb bones stimulated with IL-1β)
Assay type: cell-based, rat (SD)
Conditions: 25 μg/ml, 45Ca prelabeled rat embryonic limb bone, 72 hours culture
Method: ^45 Ca prelabeled rat embryonic limbs for the measurement of bone resorption were prepared by the method of Raisz (J. Clin. Invest. 44, 103 (1965)). Briefly, 17th day pregnant SD rats were injected subcutaneously with 200 μCi of calcium-45 as calcium chloride. Two days later, the rats were killed, the embryos removed and washed with sterilized phosphated buffer solution (PBS). The forelimbs were dissected free of muscle and the cartilagious ends were cut off. The bone shaft was cultured with BGJb medium containing 20% bovine serum albumin (BSA).
The effect of each example compound of this invention on bone resorption was assessed by the method of Tsuda et al (J. Bone & Mineral Res. 1, 207 (1986)) with slight modification. Briefly, the trimmed bone was precultured for 24 hours at 37 ° C. and in an atmosphere of 5% CO2 in air on a millipore filter immersed in 0.6 ml of BGJb medium containing 20% BSA. 24-well plate was used for culture. The bone on the filter was then transferred to a new well filled with the medium containing the compounds of this invention with or without […] and cultured for 72 hours. 0.3 ml of the supernatant was collected and used to determine the ^45 Ca release from the bone. The bone was immersed in 0.3 ml of 1 N HCl for not less than 90 minutes, and 10 ml of ACS II scintillator was added so as to measure the radioactivity in a liquid scintillation counter. The activity of bone resorption was expressed as percent of ^45 Ca release to supernatant from labeled bone (sum of the radioactivity of the bone and the medium). One bone was cultured on one well and each experimental group consisted of 5 or 6 bones derived from fetus in one pregnant rat. The activity of bone resorption was determined by the formula.
U: ^45 Ca release without adding IL-1β
C: ^45 Ca release by adding IL-1β
T: ^45 Ca release by adding IL-1β and example compound

Point of comparison: `O=C(O)c1cc(Cl)cc2c1NC(c1ccccc1)CC2` (stereo not shown) [Compound 1, 6-Chloro-2-phenyl-1,2,3,4-tetrahydroquinoline-8-carboxylic acid], inhibition at 25 µg/mL 74%. Against it:
- O=C(O)c1cccc2c1NC(c1ccc(O)cc1)CC2 (stereo not shown) [Compound 6] — lower, 70%
- O=C(O)c1cccc2c1NC(c1ccccc1)CC2 (stereo not shown) [Compound 2] — higher, 113%
- O=C(O)c1cc([N+](=O)[O-])cc2c1NCCC2 [Compound 3] — higher, 100%
- CC(C)Oc1ccc2c(=O)c(-c3ccccc3)coc2c1 [Ipriflavone, 7-isopropoxyisoflavone, reference compound] — lower, 58%
- O=C(O)c1cc(Cl)cc2c1NCCC2 [Compound 4] — higher, 76%
- CC(C)Oc1ccc(C2CCc3cccc(C(=O)O)c3N2)cc1 (stereo not shown) [Compound 8, 2-(4-Isopropoxyphenyl)-1,2,3,4-tetrahydroquinoline-8-carboxylic acid] — higher, 92%
- O=C(O)c1cccc2c1NCC(c1ccccc1)C2 (stereo not shown) [Compound 5] — higher, 103%
- Cc1ccc(S(=O)(=O)Nc2cc3c(c(C(=O)O)c2)NC(c2ccccc2)CC3)cc1 (stereo not shown) [Compound 7, 2-Phenyl-6-p-toluenesulfonylamino-1,2,3,4-tetrahydroquinoline-8-carboxylic acid] — higher, 80%

Tested on: bone resorption
Test: not given
Conditions: It has been reported; cited from earlier work

In the case of `CC(C)Oc1ccc2c(=O)c(-c3ccccc3)coc2c1` [Ipriflavone, 7-isopropoxyisoflavone, reference compound], the “inhibitory effect on bone resorption (in words)” value is listed as “have inhibitory effect on bone resorption”.
